The results in this text go back to a melting point compilation (Tetko et al.; mined from patent text by program, amines drawn as free bases though some values may be those of a salt).

Compound `OCc1cnc2c(F)c(F)c(F)cc2c1-c1cccs1` yielded a melting point of 126 to 128 °C.
Under `CCCN1C(=O)N2CC(Cc3ccccc3)N=C2c2[nH]c(C(OC)c3ccccc3)nc21` (centres undefined) stands 160 to 162 °C; under `CC(=C1SC(=O)NC1=O)c1ccc(OCCOc2c(-c3ccc(F)c(F)c3)n(C)c3cc(Cl)ccc3c2=O)cc1`, 296 to 298 °C; under `CC(=O)NC(Cc1c[nH]c2ccccc12)C(=O)CCc1cc(C(F)(F)F)cc(C(F)(F)F)c1` (centres undefined), 50 to 53 °C.
Under `CN1C(=O)C(CCCCNC(=O)OCc2ccccc2)NC1=S` (centres undefined) stands 135 °C.
`CCC(CC)c1nn(-c2ccc(Br)cn2)cc1CCCOc1c(C)cccc1CC(=O)O` had a melting point of 120 to 121 °C.
In the case of `CC(C)(C)OC(=O)CN1C(=O)C(N2C(=O)c3ccccc3C2=O)CCc2ccccc21` (centres undefined) it was 194 to 197 °C.
Compound `COc1cc2c(cc1CCC#N)C(=O)CC(C)(C)O2` registered a melting point of 105 to 107 °C.
For the compound `CN1CCN(Cc2ccc(N)cc2C(F)(F)F)CC1`, the melting point fell in the range of 119 to 121 °C.
The compound `O=C1NC(=O)c2ccc(Br)cc2/C1=C/Nc1ccc(CN2CCCC2)cc1` had a melting point of 165 to 166 °C.
In the case of `CC(C)N(Cc1ccc(Cl)c(Cl)c1)S(=O)(=O)c1cc2ccccc2s1` it was 133 to 135 °C; in that of `CS(=O)(=O)c1ccc(-c2ccccc2-c2ccc(F)c(Cl)c2)cc1`, 180 to 181 °C.
Consider `O=Cc1c(O)c(O)cc2ccccc12`, for which the melting point fell in the range of 132 to 133 °C.
As to `CC[C@H](C1CC1)n1cc(Cl)nc(N2CCc3cc(OC)c(F)c(Cl)c32)c1=O`, the melting point lay in the range of 128 to 130 °C.
Compound `CCCCNC(=O)C(C)(C)n1cc(C)c(-c2ccccc2)n1` gave a melting point of 53 to 57 °C.
For the compound `COCCOC(=O)C1=C(O)c2ccccc2S(=O)(=O)N1`, the melting point lay in the range of 120 to 122 °C.
`C#CCn1c(-c2cccnc2)c(C)c2ccccc21` came in with a melting point of 104 to 105 °C.
Under `CC1CCN2C=CC3=C(N=C12)C(c1c[nH]c2ccccc12)CC=C3` (centres undefined) stands 190 to 192 °C; under `O=C1Nc2ccc(Cl)cc2CN2CCCC12` (centres undefined), 97 to 99 °C; under `COc1ccc2c(c1)C13CCN(C#N)C(C2)C1CCC(=O)C3` (centres undefined), 211 to 214 °C.
In the case of `CCCCCCC(=O)NCc1cccc2c1C(=O)N(C1CCC(=O)NC1=O)C2=O` (centres undefined) it was 130 to 132 °C.
Take `COc1ccc(C(=O)c2cc3ccncc3[nH]2)cc1`: the melting point is 225 to 228 °C.
`CC(C)(C)OC(=O)N1CCN(c2ccc(NC(=O)Nc3cc(Cl)ccc3NS(C)(=O)=O)cc2)CC1` showed a melting point of 127 °C.
For `CCOC(=O)c1cnc2ccc(OC)nc2c1Nc1ccc(OC)cc1`, the melting point lay within 115 to 117 °C.
Under `CCC(C)COc1ccc(-c2ccc(O)cc2)cc1Br` (centres undefined) stands 75 to 76.5 °C; under `COC(=O)C(C)Oc1ccc(Nc2cc(NC(C)=O)c(F)cc2[N+](=O)[O-])cc1` (centres undefined), 126 to 128 °C.
Under `N#CC(C#N)=CN(N=C(C#N)C#N)c1ccc(C#N)cc1` stands 231 °C; under `Oc1c(Br)c(Br)c(F)c(Br)c1Br`, 178 to 180 °C; under `Nc1n[nH]c(Nc2ccccc2)n1`, 158 to 159 °C.
`Cc1ncc2n1-c1ccc(Cl)cc1N(c1ccccc1)C(=O)C2` had a melting point of 276 to 278 °C.
Under `Cc1cc(-c2ccc(Cl)c(Cl)c2)n(-c2ccc(S(N)(=O)=O)cc2)c1` stands 136 to 138 °C.
Under `Cc1cc(-c2ccc(Cl)cc2)n(-c2ccc(S(N)(=O)=O)cc2)c1` stands 196 to 198 °C.
As to `COc1cccc(C2C(=O)CCc3ccccc32)c1` (centres undefined), the melting point is 161 to 162 °C.
In the case of `C[Si](C)(C)c1[nH]c2ccccc2c1C1CC1` it was 78 to 81 °C; in that of `COc1cc(NC(=O)OC(C)(C)C)cc2c1nc(C(F)F)n2-c1nc(N2CCOCC2)nc(N2CCN(S(=O)(=O)CCN(C)C)CC2)n1`, 200 to 202 °C; in that of `COC(=O)c1cnc2n1CCc1ccccc1C2=C1CCN(CCc2ccc(OCc3ccc4ccccc4n3)cc2)CC1`, 179 °C.
`Nc1ncnc2c1c(-c1cc(O)cc(F)c1)nn2Cc1oc2ccc(F)cc2c(=O)c1-c1cccc(F)c1`: the melting point lay within 127 to 129 °C.
Regarding `Cc1c(NC(=O)c2ccc(-c3ccc(F)cc3)c(F)c2)ccc2cc(CN3CCCCCC3)cnc12`, the melting point was in the range of 162 to 163 °C.
With `Cc1ccc(S(=O)(=O)NCCCCOc2ccc([N+](=O)[O-])cc2)cc1`, the melting point lay in the range of 87 to 88 °C.
Regarding `COC(=O)CCCC(C)(C)c1cc(Cl)c(O)c(Cl)c1`, the melting point was 101 to 103 °C.
On to `CC(=NOCCOc1ccc(CC2SC(=O)NC2=O)cc1)c1ccc(-c2ccc(F)cc2)cc1` (centres undefined), for which the melting point was 155 to 156 °C.
In the case of `Cc1c(C)c2c(c(C)c1N)C(c1ccc(F)cc1)C(C)(C)O2` (centres undefined) it was 126 to 127 °C.
Take `CCC(ON=c1c2nccc3cccc(c32)n2cccc12)C(=O)O` (centres undefined): the melting point came to 180 °C.
On to `FC(F)(F)c1cccc(N2CCN(Cc3n[nH]c4c(Cl)cccc34)CC2)c1`, for which the melting point is 133 to 134 °C.
`CC#CCC(C)(C)C(=O)/C=C/[C@@H]1[C@H]2CC(=O)O[C@H]2C[C@H]1OC(=O)c1ccccc1` gave a melting point of 73 to 74 °C.
The compound `CCOc1cc2c(cc1S(=O)(=O)NC(=S)NC)C(CNC(=O)N1CC(C)=C(CC)C1=O)CCO2` (centres undefined) came in with a melting point of 178 °C.
Take `CO/C=C(/C(=O)OC)c1c(O)c(C)nn1C`: the melting point turned out to be 173 °C.
`Cc1ccc2c([N+](=O)[O-])c(F)ccc2n1`: the melting point was 105 to 108 °C.
In turn, `CCOC(=O)c1c(SCOC)nc2c(F)c(F)c(F)cc2c1O` registered a melting point of 91 to 94 °C.
`O=C(O)Cc1nn(-c2nc3ccccc3s2)c(=O)c2ccccc12` gave a melting point of 205 °C.
As for `CCc1[nH]n(C2CCCC2)c2nc(Cc3cccn3C)nc(=O)c1-2`, the melting point is 214 to 216 °C.
Consider `O=C(C1=COc2cc(O)ccc2O1)N1CCN(C(c2ccc(F)cc2)c2ccc(F)cc2)CC1`, for which the melting point came to 163 °C.
`CCCCN1CCN(Cc2nc(-c3ccc4c(c3)Nc3ccccc3S4)cs2)CC1`: the melting point was 188 to 190 °C.
The compound `CCOC(=O)c1cc2cc(C)sc2[nH]1` yielded a melting point of 107 to 109 °C.
The compound `CC(=O)N[C@@H]1[C@H](O)CC(C(=O)O)=C[C@H]1OC(C)C` had a melting point of 64 to 65 °C.
In the case of `CN(C)CCN(C)c1ccc2nnc(-c3cnc([N+](=O)[O-])n3C)n2n1` it was 196 to 198 °C.
Compound `CC(=O)NC(CCOC(C)=O)(CCOC(C)=O)CCc1ccccc1` gave a melting point of 73 to 74 °C.
The compound `O=C(NNc1ccc(NC(=S)NCc2ccccc2)cc1)c1ccc(F)cc1` had a melting point of 186 to 188 °C.
The compound `OC(c1ccncc1)c1c[nH]c(-c2ccc(F)cc2)c1-c1ccncc1` (single isomer, unassigned; (+)) registered a melting point of 202 to 205 °C.
In the case of `Cn1c(=O)n(CCC[C@@H](NS(=O)(=O)c2ccc(-c3ccccc3)cc2)C(=O)O)c(=O)c2ccccc21` it was 222 to 224 °C.
In the case of `CN1C(=O)SC(Cc2cn(-c3ccccc3)nc2O)C1=O` (centres undefined) it was 233 to 234 °C; in that of `O=C(O)CCc1conc1-c1ccc(Cl)c(Cl)c1`, 181 to 182 °C.
In turn, `CCC(Cc1cccc(F)c1)n1nnc2cc3c(cc2c1=O)OC1CCCN1C3=O` (centres undefined) displayed a melting point of 117 to 119 °C.
Regarding `O=C(NC(Cc1ccc([N+](=O)[O-])cc1)C(=O)C(F)(F)F)c1ccccc1` (centres undefined), the melting point is 175 °C.
`Cc1ccc(S(=O)(=O)N(F)CC(C)(C)C)cc1`: the melting point was 58 to 62.5 °C.
`O=C(NC(=O)N1CCC(Oc2ccc(Cl)cc2)CC1)c1ccc(O)cc1` showed a melting point of 189 °C.
In the case of `CNC(=O)NC(=O)C(CC1CCCC1OC1CCCCO1)c1ccc(Cl)c(Cl)c1` (centres undefined), the melting point lay in the range of 68 to 70 °C.
`O=c1c2ccccc2[nH]c2c(OCCCCN(CCCl)CCCl)cccc12` had a melting point of 119 °C.
Compound `N#Cc1ccc(NCc2cccc(F)c2)cc1` registered a melting point of 63 to 64 °C.
Compound `CC(C)=CCOc1ccc2c(=O)c(C)c(-c3ccccc3)oc2c1C(=O)C=Cc1ccc(Cl)cc1` came in with a melting point of 130 to 133 °C.
Under `COC(=O)CCCCCCCCCCCCCCCCCCCN1C(=O)c2ccccc2C1=O` stands 86.5 to 87.5 °C; under `N#Cc1ccc(CCC(O)c2ccc(C#N)cc2)cc1` (centres undefined), 110 to 112 °C; under `Cc1nc2cnccc2n1-c1ccc(O)cc1F`, 294 °C.
Turning to `Nc1nc(Cl)cc(-c2ccco2)n1`, the melting point is 133 to 140 °C.
Consider `CCOP1(=S)OCc2cc(C)cnc2O1` (centres undefined), for which the melting point lay in the range of 54 to 55 °C.
For `CCN1C(=O)Cc2ccc(OC(=O)CCl)cc21`, the melting point lay within 114 to 116 °C.
`NC(=O)c1c(I)cc(I)c(CCC(=O)O)c1I` yielded a melting point of more than 280 °C.
As to `CCn1nc2c(N)nc3c(c2c1CC1(O)CCCCC1)CCCC3`, the melting point is 232 to 234 °C.
In the case of `Nc1nc2ccccc2n1S(=O)(=O)C=Cc1ccccc1` it was 191 °C; in that of `CC(=NO)C1(c2ccc(Cl)c(Cl)c2)CCC1`, 120 to 121 °C.
Consider `O=c1[nH]c(Cl)c(Cc2ccccc2)c(=O)n1Cc1ccccc1`, for which the melting point was in the range of 146 to 148 °C.
In the case of `CC(C)(C)c1cc(-c2ccc(NC(=O)[C@H]3CCCC[C@H]3C(=O)O)cc2)cc(C(C)(C)C)c1O` (relative stereo) it was 217 to 220 °C; in that of `Cn1nc(C(=O)NCc2ccc(Cl)cc2)c(=O)c2cc(CN3CCOCC3)ccc21`, 190 to 192 °C; in that of `COc1cccc(CC(=NO)c2ccccc2)c1`, 72 to 73 °C.
Turning to `CN1C(=O)C(C)(C)C(=O)Nc2cc(C#N)ccc21`, the melting point was 289 to 294 °C.
`COc1ccc(S(=O)(=O)N2Cc3cc(C)ccc3N(C(=O)c3ccccc3-n3cccn3)CC2C(=O)O)cc1` (centres undefined) gave a melting point of 149 to 151 °C.
In the case of `O[C@@H]1C=C[C@H](COC(c2ccccc2)(c2ccccc2)c2ccccc2)C1` (relative stereo) it was 94 to 96 °C; in that of `CC(C)n1nc(OCc2ccccc2)cc1CO`, 81 to 82 °C; in that of `COC(=O)N1CCC2=NNC(=O)CC2C1` (centres undefined), 163 to 165 °C.

As usually defined, the melting point is the temperature of the solid-liquid transition.
